Experimental findings from ChEMBL document CHEMBL1201862, “PubChem BioAssay data set” (2004) are described below.

Test systems include T47D; MCF7; 786-0; IGROV-1; HOP-62; EKVX; OVCAR-4; SF-539; SK-OV-3; HOP-92; COLO 205; KM12; SNB-19; Hs-578T; RPMI-8226; OVCAR-5; Malme-3M; NCI-H522; NCI-H226.
Holding throughout (experiment): DTP human tumour cell line panel, 48 h

The structures appear in SMILES notation.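 Results reflect a 48-hour exposure of cells in 96-well plates to compound at five concentrations. The concentration for 50% growth inhibition is given as GI50.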 Calls of active or inactive are those of the source. No stated cut-off is given here; in the data, active = GI50 up to about 1.1 µM and inactive = higher.

In the case of `Cc1cc2nc(N3C(=O)/C(=C/c4ccc(N(C)C)cc4)N=C3c3ccccc3)sc2cc1C`, the GI50 in the assay with T47D is 31.4 µM (inactive); in the assay on MCF7, 0.515 µM (active); in the assay on 786-0, 20.5 µM (inactive); with IGROV-1, 16.3 µM (inactive); in the assay on HOP-62 it was > 100 µM (inactive); in the assay with EKVX, 23 µM (inactive). Moreover, the GI50 with OVCAR-4 is 29.4 µM (inactive); in the assay with SF-539, 22.2 µM (inactive); with SK-OV-3, > 100 µM (inactive); in the assay on HOP-92, 15.2 µM (inactive); in the assay with COLO 205 it was 18 µM (inactive); with KM12, 26 µM (inactive). Moreover, the GI50 in the assay on SNB-19 was 54.6 µM (inactive); in the assay with Hs-578T, 30.3 µM (inactive); in the assay with RPMI-8226, 23.8 µM (inactive); in the assay on OVCAR-5, 22.9 µM (inactive).

Regarding `COc1ccc(C2=C(Cl)C(=O)O/C2=C\c2ccc(OC)c(Br)c2)cc1Cl`, the GI50 is 58.9 µM (inactive) in the assay on T47D; 14.6 µM (inactive) in the assay on MCF7; 17.2 µM (inactive) in the assay on 786-0; 33.7 µM (inactive) in the assay with IGROV-1; 14.6 µM (inactive) in the assay on HOP-62; 31.6 µM (inactive) in the assay on EKVX. For the same compound, the GI50 is > 100 µM (inactive) with OVCAR-4; 16.1 µM (inactive) in the assay on SF-539; 37.1 µM (inactive) in the assay on SK-OV-3; 54 µM (inactive) with Malme-3M; 24 µM (inactive) with HOP-92; > 100 µM (inactive) in the assay with COLO 205. Besides, the GI50 was 25.6 µM (inactive) in the assay on NCI-H522; > 100 µM (inactive) in the assay on KM12; 31.8 µM (inactive) with SNB-19; 27.4 µM (inactive) in the assay on Hs-578T; > 100 µM (inactive) in the assay on RPMI-8226; 43.5 µM (inactive) in the assay with OVCAR-5.

Take `O=[N+]([O-])C(=C(N1CCOCC1)N1CCOCC1)/C(Cl)=C(\Cl)[N+](=O)[O-]`: the GI50 in the assay with NCI-H226 was 47 µM (inactive); in the assay with T47D, 1.96 µM (inactive); in the assay with MCF7, 2.67 µM (inactive); in the assay with 786-0 it was 3.69 µM (inactive); in the assay with IGROV-1 it was 1.41 µM (inactive); with HOP-62 it was 15.7 µM (inactive). Moreover, the GI50 in the assay with EKVX is 8.73 µM (inactive); in the assay on OVCAR-4 it was 16 µM (inactive); in the assay on SF-539, 11.6 µM (inactive); in the assay on SK-OV-3, 52.7 µM (inactive); with Malme-3M, 1.68 µM (inactive); in the assay with COLO 205 it was 3.18 µM (inactive). The GI50 was 1.48 µM (inactive) in the assay on NCI-H522; 16.3 µM (inactive) in the assay with KM12; 25.8 µM (inactive) in the assay on SNB-19; 1.18 µM (inactive) in the assay with Hs-578T; 2.31 µM (inactive) with RPMI-8226; 14.6 µM (inactive) in the assay on OVCAR-5.

Consider `CCN(CC)CCNC(=O)c1cc2cc(NC(=O)c3cc4cc(N)ccc4[nH]3)ccc2[nH]1`, for which the GI50 in the assay on T47D was 20.3 µM (inactive); in the assay with MCF7, 15.1 µM (inactive); in the assay on 786-0 it was 35.8 µM (inactive); with HOP-62, 55 µM (inactive); in the assay on EKVX, 97.1 µM (inactive); in the assay with OVCAR-4 it was 8.05 µM (inactive). Besides, the GI50 was 31.1 µM (inactive) in the assay with SF-539; 31.3 µM (inactive) in the assay on SK-OV-3; 24 µM (inactive) with HOP-92; 12.9 µM (inactive) in the assay with COLO 205; 19.1 µM (inactive) in the assay with NCI-H522; 14.7 µM (inactive) in the assay with KM12. For the same compound, the GI50 with SNB-19 is 49.3 µM (inactive); in the assay with Hs-578T, 35 µM (inactive); with RPMI-8226, 19.3 µM (inactive); in the assay on OVCAR-5 it was > 100 µM (inactive).

Turning to `COc1cc2c3c(n(C)c(=O)c2cc1OC)-c1cc2c(cc1/C3=C\CCCCl)OCO2`, the GI50 in the assay with T47D is 30.3 µM (inactive); with MCF7, 42 µM (inactive); in the assay with 786-0, 16.7 µM (inactive); in the assay with IGROV-1, 25.4 µM (inactive); with EKVX, 54.6 µM (inactive); with OVCAR-4 it was 49.7 µM (inactive). For the same compound, the GI50 was 23 µM (inactive) with SK-OV-3; > 100 µM (inactive) with Malme-3M; 82.2 µM (inactive) in the assay on HOP-92; 32.9 µM (inactive) in the assay with COLO 205; 20.8 µM (inactive) with NCI-H522; 23.8 µM (inactive) with KM12. Moreover, the GI50 with SNB-19 was 44.9 µM (inactive); with Hs-578T it was 47.4 µM (inactive); with OVCAR-5 it was > 100 µM (inactive).

In the case of `O=P(O)(O)OP(=O)(O)O`, the GI50 with T47D, with MCF7, in the assay with 786-0, in the assay with IGROV-1, in the assay with HOP-62 and in the assay with EKVX was > 100 µM (inactive) in each case. For the same compound, the GI50 in the assay on OVCAR-4, in the assay with SF-539, in the assay with SK-OV-3, in the assay with Malme-3M, in the assay with HOP-92 and with COLO 205 was > 100 µM (inactive) throughout. In addition, the GI50 with NCI-H522, in the assay with KM12, with SNB-19, with Hs-578T, in the assay with RPMI-8226 and in the assay on OVCAR-5 was > 100 µM (inactive) throughout.

Regarding `COc1ccc(P2(=S)OCCOP(=S)(c3ccc(OC)cc3)S2)cc1` (centres undefined), the GI50 with NCI-H226 was 5.16 µM (inactive); in the assay with T47D it was 41.8 µM (inactive); in the assay with MCF7, 3.62 µM (inactive); in the assay on 786-0, 4.79 µM (inactive); with IGROV-1, 4.03 µM (inactive); with HOP-62, 3.58 µM (inactive). The GI50 in the assay on EKVX is > 21.8 µM (inactive); in the assay on OVCAR-4, 12.3 µM (inactive); in the assay on SF-539 it was 2.76 µM (inactive); in the assay with Malme-3M, 13.7 µM (inactive); with HOP-92, 10.4 µM (inactive); in the assay on COLO 205 it was 3.56 µM (inactive). The GI50 in the assay with NCI-H522 is 2.2 µM (inactive); in the assay on KM12 it was 2.87 µM (inactive); with SNB-19, 3.71 µM (inactive); in the assay on Hs-578T it was 5.48 µM (inactive); with OVCAR-5 it was > 100 µM (inactive).

Consider `C=C[C@@]1(C)CC[C@@H]2[C@@]3(C1)O[C@H]3CC1[C@](C)(C(=O)OC)CCC[C@@]12C` (some centres undefined), for which the GI50 was 20.7 µM (inactive) with T47D; 15.6 µM (inactive) in the assay with MCF7; 20.3 µM (inactive) with 786-0; 25.6 µM (inactive) in the assay with IGROV-1; 20 µM (inactive) in the assay with HOP-62; 20.7 µM (inactive) in the assay with EKVX. The GI50 is 38.5 µM (inactive) in the assay with OVCAR-4; 27.4 µM (inactive) with SK-OV-3; 17.7 µM (inactive) in the assay on Malme-3M; 16.7 µM (inactive) with HOP-92; 16.6 µM (inactive) in the assay on COLO 205; 16.9 µM (inactive) in the assay on NCI-H522. Further, the GI50 in the assay with KM12 was 35.6 µM (inactive); in the assay on SNB-19, 16.3 µM (inactive); in the assay on Hs-578T it was 20 µM (inactive); with RPMI-8226 it was 27 µM (inactive); in the assay with OVCAR-5 it was 16.9 µM (inactive).

Consider `CNC(=O)OCC1=C(COC(=O)NC)C(C)N(c2ccccc2)C1` (centres undefined), for which the GI50 in the assay with NCI-H226 was 11.3 µM (inactive); in the assay on T47D, 26.7 µM (inactive); in the assay with MCF7, 20.8 µM (inactive); in the assay with 786-0 it was 47.2 µM (inactive); in the assay on IGROV-1, 26.2 µM (inactive); with HOP-62, 53.6 µM (inactive). The GI50 with EKVX was 46.1 µM (inactive); in the assay on OVCAR-4, 37.8 µM (inactive); with SF-539, 23.3 µM (inactive); with SK-OV-3, 42.4 µM (inactive); in the assay on Malme-3M, 33.9 µM (inactive); in the assay with HOP-92, 28.8 µM (inactive). The GI50 is 21.2 µM (inactive) in the assay with COLO 205; 30.5 µM (inactive) in the assay with KM12; 58.5 µM (inactive) in the assay on SNB-19; 43.4 µM (inactive) in the assay on Hs-578T; 24.6 µM (inactive) in the assay on RPMI-8226; 25.4 µM (inactive) in the assay with OVCAR-5.

For the compound `CSc1c2c(C)n[nH]c2nn1-c1ccccc1`, the GI50 with NCI-H226 is 58.5 µM (inactive); in the assay on T47D, 85.1 µM (inactive); in the assay on MCF7, 92 µM (inactive); with 786-0, 66.8 µM (inactive); in the assay with EKVX, 83.4 µM (inactive); with OVCAR-4, 53.7 µM (inactive). The GI50 with SF-539 is 40.4 µM (inactive); in the assay on SK-OV-3, > 100 µM (inactive); with Malme-3M, > 100 µM (inactive); with COLO 205, 62.2 µM (inactive); in the assay with NCI-H522, 5.01 µM (inactive); in the assay on KM12, 68.7 µM (inactive). Further, the GI50 in the assay on SNB-19, in the assay on Hs-578T, in the assay with RPMI-8226 and with OVCAR-5 was > 100 µM (inactive) throughout.

For `CC(C)Cn1cnc2c(SCc3ccc(Cl)cc3Cl)nc(N)nc21`, the GI50 was 13.5 µM (inactive) with T47D; 18.3 µM (inactive) with MCF7; 23.9 µM (inactive) with 786-0; 48.8 µM (inactive) in the assay with IGROV-1; 49.7 µM (inactive) with HOP-62; 14.5 µM (inactive) in the assay on EKVX. Moreover, the GI50 in the assay with OVCAR-4 is 59.2 µM (inactive); with SF-539 it was 15.8 µM (inactive); in the assay on SK-OV-3, > 100 µM (inactive); in the assay with Malme-3M it was 26.4 µM (inactive); with HOP-92, 26.2 µM (inactive); with COLO 205, 11.5 µM (inactive). Further, the GI50 with NCI-H522 is 14.6 µM (inactive); with KM12 it was 27.2 µM (inactive); in the assay on SNB-19 it was 44.3 µM (inactive); with Hs-578T, 44.8 µM (inactive); in the assay on RPMI-8226, 10.1 µM (inactive); in the assay on OVCAR-5, 37.8 µM (inactive).

Turning to `CN(C)c1ccc([S+]([O-])Nc2ccccc2)cc1` (centres undefined), the GI50 with NCI-H226 is 38.4 µM (inactive); with T47D, 19.1 µM (inactive); in the assay with MCF7, 29.4 µM (inactive); with 786-0, 35.4 µM (inactive); in the assay on IGROV-1, 30 µM (inactive); with HOP-62, 56 µM (inactive). The GI50 is 32.8 µM (inactive) in the assay with EKVX; 45 µM (inactive) with OVCAR-4; > 100 µM (inactive) in the assay with SF-539; 49.8 µM (inactive) in the assay with Malme-3M; 24.6 µM (inactive) in the assay with COLO 205; 13.2 µM (inactive) with NCI-H522. Further, the GI50 was 17.1 µM (inactive) with KM12; 60.1 µM (inactive) in the assay with SNB-19; 45 µM (inactive) in the assay with Hs-578T; 27.5 µM (inactive) in the assay with RPMI-8226; > 100 µM (inactive) in the assay on OVCAR-5.

A word on the GI50: it is the concentration at which growth is held to half of that of the control.
